Source: patent publication US11000033B2, “Ketone or oxime compound, and herbicide” (NISSAN CHEMICAL CORPORATION, priority 2014, dated 2021)

Columns and labels:
Format in all cases: in vivo
[1] = system: beet; assay: Test Example 5: effect on crop by foliage application, plastic box (symbol f); details: 320 g/ha, 3 weeks after application
Outline: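 Foliage-application test plants come from spot sowing in sterilized diluvial soil under a soil layer of about 1.5 cm, grown at 25° C. to 30° C. in a greenhouse.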

[2] = system: Abutilon theophrasti; assay: Test Example 5: herbicidal effect by foliage application, plastic box (symbol M); details: 320 g/ha, 3 weeks after application
Outline: (§1)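 Emulsion formulation, diluted with water to the intended rate, was applied uniformly to leaves by small sprayer. Recipients were 14-day greenhouse-grown seedlings (25° C. to 30° C.). Assessment followed at 3 weeks.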

[3] = system: Chenopodium album; assay: Test Example 5: herbicidal effect by foliage application, plastic box (symbol O); details: 320 g/ha, 3 weeks after application
Outline: as §1

[4] = system: Echinochloa crus-galli var. crus-galli; assay: Test Example 3: herbicidal effect by foliage application, Wagner pot (symbol H); details: application herbicide amount 320 g/ha
Outline: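 In a shallow-flooded alluvial soil system held at 25–30 °C, plants including rice grew for 14 days and were then sprayed over the foliage with emulsion diluted to a fixed herbicide amount. Visual rating followed at 3 weeks.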

[5] = system: Setaria viridis; assay: Test Example 4: herbicidal effect by soil treatment (symbol G); details: application herbicide amount 320 g/ha
Outline: (§2)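 Seeds were sown in sterilized diluvial soil, covered with about 1.5 cm of soil, and the soil surface was sprayed with a water-diluted emulsion of the compound at a predetermined rate. Plants grew in a greenhouse at 25° C. to 30° C.; effects were scored visually 3 weeks after application.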

[6] = system: Digitaria ciliaris; assay: Test Example 4: herbicidal effect by soil treatment (symbol F); details: application herbicide amount 320 g/ha
Outline: as §2

[7] = system: Digitaria ciliaris; assay: Test Example 5: herbicidal effect by foliage application, plastic box (symbol F); details: 320 g/ha, 3 weeks after application
Outline: as §1

[8] = system: Lolium multiflorum Lam.; assay: Test Example 4: herbicidal effect by soil treatment (symbol K); details: application herbicide amount 320 g/ha
Outline: as §2

[9] = system: Alopecurus myosuroides; assay: Test Example 5: herbicidal effect by foliage application, plastic box (symbol J); details: 320 g/ha, 3 weeks after application
Outline: as §1

[10] = system: wheat; assay: Test Example 4: effect on crop by soil treatment (symbol e); details: application herbicide amount 320 g/ha
Outline: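 Plants are raised in a greenhouse (25° C. to 30° C.) from spot-sown seed, which sits under about 1.5 cm of sterilized diluvial soil in a box shared with weed species.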

[11] = system: Veronica persica; assay: Test Example 4: herbicidal effect by soil treatment (symbol R); details: application herbicide amount 320 g/ha
Outline: as §2

[12] = system: transplanted rice plant; assay: Test Example 1: effect on crop, application before weed generation in submerged conditions (symbol a); details: application herbicide amount 320 g/ha
Outline: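 Rice at 2.5 leaf stage transplanted into submerged soil (4 cm depth) sown with three weed species; herbicide applied before weed emergence.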

[13] = system: Stellaria media; assay: Test Example 5: herbicidal effect by foliage application, plastic box (symbol P); details: 320 g/ha, 3 weeks after application
Outline: as §1

[14] = system: directly sowed rice plant; assay: Test Example 3: effect on crop by foliage application, Wagner pot (symbol b); details: application herbicide amount 320 g/ha
Outline: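 Steps: fill a 1/10000-are Wagner pot with alluvial soil; add water and mix to submerge at 0.1–0.5 cm depth; sow rice plus Echinochloa crus-galli var. crus-galli, Leptochloa chinensis and Cyperus difformis; grow in a 25–30 °C greenhouse.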

[15] = system: Galium spurium; assay: Test Example 4: herbicidal effect by soil treatment (symbol Q); details: application herbicide amount 320 g/ha
Outline: as §2

[16] = system: Lolium multiflorum Lam.; assay: Test Example 5: herbicidal effect by foliage application, plastic box (symbol K); details: 320 g/ha, 3 weeks after application
Outline: as §1

[17] = system: Amaranthus retroflexus; assay: Test Example 4: herbicidal effect by soil treatment (symbol N); details: application herbicide amount 320 g/ha
Outline: as §2

[18] = system: Chenopodium album; assay: Test Example 4: herbicidal effect by soil treatment (symbol O); details: application herbicide amount 320 g/ha
Outline: as §2

Row | Compound | f: beet, effect on crop grade [1] | M: Abutilon theophrasti, herbicidal effect grade [2] | O: Chenopodium album, herbicidal effect grade [3] | herbicidal effect on H (Echinochloa crus-galli var. crus-galli), grade 0-5 [4] | G: Setaria viridis, herbicidal effect grade [5] | F: Digitaria ciliaris, herbicidal effect grade [6] | F: Digitaria ciliaris, herbicidal effect grade [7] | K: Lolium multiflorum Lam., herbicidal effect grade [8] | J: Alopecurus myosuroides, herbicidal effect grade [9] | e: wheat, effect on crop grade [10] | R: Veronica persica, herbicidal effect grade [11] | Effect grade on crop, a: transplanted rice plant [12] | P: Stellaria media, herbicidal effect grade [13] | effect on crop b (directly sowed rice plant), grade 0-5 [14] | Q: Galium spurium, herbicidal effect grade [15] | K: Lolium multiflorum Lam., herbicidal effect grade [16] | N: Amaranthus retroflexus, herbicidal effect grade [17] | O: Chenopodium album, herbicidal effect grade [18] | f: beet, effect on crop (criteria of Test Example 1) [1] | O: Chenopodium album, herbicidal effect (criteria of Test Example 1) [3] | other results
1 | CON=C(C)CC1CC(O)=C(c2c(C)cc(Oc3ccccc3)cc2C)C1=O (stereo not shown) [6-052] | 0 (Herbicidal ratio of 5% or lower (almost no effect)) | 0 (Herbicidal ratio of 5% or lower (almost no effect)) | 0 (Herbicidal ratio of 5% or lower (almost no effect)) | 5 (Herbicidal ratio of 90% or more (almost completely withered)) | 3 (Herbicidal ratio of 40% or higher and lower than 70%) | 4 (Herbicidal ratio of 70% or higher and lower than 90%) | 5 (Herbicidal ratio of 90% or more (almost completely withered)) | 0 (Herbicidal ratio of 5% or lower (almost no effect)) | 4 (Herbicidal ratio of 70% or higher and lower than 90%) | 0 (Herbicidal ratio of 5% or lower (almost no effect)) | 0 (Herbicidal ratio of 5% or lower (almost no effect)) | 3 (Herbicidal ratio of 40% or higher and lower than 70%) | 0 (Herbicidal ratio of 5% or lower (almost no effect)) | 5 (Herbicidal ratio of 90% or more (almost completely withered)) | 0 (Herbicidal ratio of 5% or lower (almost no effect)) | 5 (Herbicidal ratio of 90% or more (almost completely withered)) | 0 (Herbicidal ratio of 5% or lower (almost no effect)) | 0 (Herbicidal ratio of 5% or lower (almost no effect)) | – | – | –
2 | CON=C(C)CC1CC(O)=C(c2c(C)cc(-c3ccccn3)cc2C)C1=O (mixture of isomers) [6-051] | 3 (Herbicidal ratio of 40% or higher and lower than 70%) | 1 (Herbicidal ratio of 5% or higher and lower than 20%) | 5 (Herbicidal ratio of 90% or more (almost completely withered)) | 5 (Herbicidal ratio of 90% or more (almost completely withered)) | 5 (Herbicidal ratio of 90% or more (almost completely withered)) | 5 (Herbicidal ratio of 90% or more (almost completely withered)) | 5 (Herbicidal ratio of 90% or more (almost completely withered)) | 5 (Herbicidal ratio of 90% or more (almost completely withered)) | 5 (Herbicidal ratio of 90% or more (almost completely withered)) | 2 (Herbicidal ratio of 20% or higher and lower than 40%) | 0 (Herbicidal ratio of 5% or lower (almost no effect)) | 5 (Herbicidal ratio of 90% or more (almost completely withered)) | 4 (Herbicidal ratio of 70% or higher and lower than 90%) | 5 (Herbicidal ratio of 90% or more (almost completely withered)) | 0 (Herbicidal ratio of 5% or lower (almost no effect)) | 5 (Herbicidal ratio of 90% or more (almost completely withered)) | 5 (Herbicidal ratio of 90% or more (almost completely withered)) | 0 (Herbicidal ratio of 5% or lower (almost no effect)) | – | – | –
3 | CON=C(C)CC1CC(O)=C(c2c(C)cc(-c3ccc(Cl)cc3F)cc2C)C1=O (stereo not shown) [6-084] | – | – | – | 5 (Herbicidal ratio of 90% or more (almost completely withered)) | 5 (Herbicidal ratio of 90% or more (almost completely withered)) | 5 (Herbicidal ratio of 90% or more (almost completely withered)) | – | 5 (Herbicidal ratio of 90% or more (almost completely withered)) | – | 2 (Herbicidal ratio of 20% or higher and lower than 40%) | 4 (Herbicidal ratio of 70% or higher and lower than 90%) | 5 (Herbicidal ratio of 90% or more (almost completely withered)) | – | 5 (Herbicidal ratio of 90% or more (almost completely withered)) | 3 (Herbicidal ratio of 40% or higher and lower than 70%) | – | 4 (Herbicidal ratio of 70% or higher and lower than 90%) | 3 (Herbicidal ratio of 40% or higher and lower than 70%) | 0 (Herbicidal ratio of 5% or lower (almost no effect)) | 4 (Herbicidal ratio of 70% or higher and lower than 90%) | M: Abutilon theophrasti, herbicidal effect (criteria of Test Example 1) [2]: 3 (Herbicidal ratio of 40% or higher and lower than 70%); F: Digitaria ciliaris, herbicidal effect (criteria of Test Example 1) [7]: 5 (Herbicidal ratio of 90% or more (almost completely withered)); J: Alopecurus myosuroides, herbicidal effect (criteria of Test Example 1) [9]: 5 (Herbicidal ratio of 90% or more (almost completely withered)); P: Stellaria media, herbicidal effect (criteria of Test Example 1) [13]: 3 (Herbicidal ratio of 40% or higher and lower than 70%); K: Lolium multiflorum Lam., herbicidal effect (criteria of Test Example 1) [16]: 5 (Herbicidal ratio of 90% or more (almost completely withered))
4 | COc1cc(Br)cc(F)c1C1=C(O)CC(CC(C)=O)C1=O (stereo not shown) [7-029] | – | – | – | – | – | – | – | – | – | – | – | 0 (Herbicidal ratio of 5% or lower (almost no effect)) | – | – | – | – | – | – | 0 (Herbicidal ratio of 5% or lower (almost no effect)) | 0 (Herbicidal ratio of 5% or lower (almost no effect)) | H (Echinochloa crus-galli var. crus-galli) herbicidal effect grade ([4]; Table 24): 3 (Herbicidal ratio of 40% or higher and lower than 70%); Herbicidal effect grade, G: Setaria viridis [5]: 4 (Herbicidal ratio of 70% or higher and lower than 90%); Herbicidal effect grade, F: Digitaria ciliaris [6]: 0 (Herbicidal ratio of 5% or lower (almost no effect)); Herbicidal effect grade, K: Lolium multiflorum Lam. [8]: 3 (Herbicidal ratio of 40% or higher and lower than 70%); J: Alopecurus myosuroides, herbicidal effect (criteria of Test Example 1) [9]: 3 (Herbicidal ratio of 40% or higher and lower than 70%); Effect on crop grade, e: wheat [10]: 0 (Herbicidal ratio of 5% or lower (almost no effect)); Herbicidal effect grade, R: Veronica persica [11]: 0 (Herbicidal ratio of 5% or lower (almost no effect)); P: Stellaria media, herbicidal effect (criteria of Test Example 1) [13]: 0 (Herbicidal ratio of 5% or lower (almost no effect)); b (directly sowed rice plant) effect on crop grade ([14]; Table 24): 0 (Herbicidal ratio of 5% or lower (almost no effect)); Herbicidal effect grade, Q: Galium spurium [15]: 0 (Herbicidal ratio of 5% or lower (almost no effect)); K: Lolium multiflorum Lam., herbicidal effect (criteria of Test Example 1) [16]: 5 (Herbicidal ratio of 90% or more (almost completely withered)); Herbicidal effect grade, N: Amaranthus retroflexus [17]: 0 (Herbicidal ratio of 5% or lower (almost no effect)); Herbicidal effect grade, O: Chenopodium album [18]: 0 (Herbicidal ratio of 5% or lower (almost no effect))
